Key:
STEME [1] = assay: Pre-emergence herbicidal action against STEME; format: in vivo, Stellaria media; details: scored visually after about 3 weeks vs untreated controls
In short: (§1)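 Visual percent activity (100% = plants dead, 0% = like control) scored about 3 weeks after pre-emergence treatment in greenhouse. Compounds as WP or EC, applied to covering soil surface with 0.5% additive, 600 L/ha water, at 1280 or 320 g/ha.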

ECHCG [2] = assay: Post-emergence herbicidal action against ECHCG; format: in vivo, Echinochloa crus-galli; details: 1280 g/ha, post-emergence at one-leaf stage, rated visually after about 3 weeks vs untreated controls
In short: (§2)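 Greenhouse, sandy loam, one-leaf stage; compound as WP/EC at 1280 or 320 g/ha plus 0.5% additive (600 L/ha). Visual % activity at ~3 weeks relative to untreated plants.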

LOLRI = assay: Post-emergence herbicidal action against LOLRI; format: in vivo, Lolium rigidum; details: 1280 g/ha, post-emergence at one-leaf stage, rated visually after about 3 weeks vs untreated controls
Method: (§3) [table] Seeds of mono- and dicotyledonous weed plants are placed in plastic pots in sandy loam soil (twin sowing with one species each of mono- or dicotyledonous weed plants per pot), covered with soil and cultivated in a greenhouse under controlled growth conditions. 2 to 3 weeks after sowing, the test plants are treated at the one-leaf stage. The compounds of the invention, formulated in the form of wettable powders (WP) or as emulsion concentrates (EC), are applied to the green parts of the plants as aqueous suspension or emulsion with addition of 0.5% additive at a water application rate equivalent to 600 litres per hectare. After the test plants have been kept in the greenhouse under optimum growth conditions for about 3 weeks, the activity of the preparations is rated visually in comparison to untreated controls. For example, 100% activity=the plants have died, 0% activity=like control plants. Tables 5.1-5.16 below show the effects of selected compounds of the general formula (I) according to Tables 1 to 3 on various harmful plants at an application rate corresponding to 1280 or 320 g/ha, which have been obtained by the aforementioned experimental method.

SETVI [3] = assay: Pre-emergence herbicidal action against SETVI; format: in vivo, Setaria viridis; details: 1280 g/ha, scored visually after about 3 weeks vs untreated controls
In short: as §1

ECHCG [4] = assay: Pre-emergence herbicidal action against ECHCG; format: in vivo, Echinochloa crus-galli; details: scored visually after about 3 weeks vs untreated controls, 100% = plants have died, 0% = like control plants
In short: as §1

SETVI [5] = assay: Post-emergence herbicidal action against SETVI; format: in vivo, Setaria viridis; details: 1280 g/ha, post-emergence at one-leaf stage, rated visually after about 3 weeks vs untreated controls
In short: as §2

AMARE [6] = assay: Pre-emergence herbicidal action against AMARE; format: in vivo, Amaranthus retroflexus; details: scored visually after about 3 weeks vs untreated controls; for Pre-emergence action against AMARE in %: 1280 g/ha; for Pre-emergence action at 320 g/ha against AMARE in %: 100% = plants have died, 0% = like control plants
In short: as §1

STEME [7] = assay: Post-emergence herbicidal action against STEME; format: in vivo, Stellaria media; details: visual rating about 3 weeks after treatment
In short: as §2

AMARE [8] = assay: Post-emergence herbicidal action against AMARE; format: in vivo, Amaranthus retroflexus; details: visual rating about 3 weeks after treatment
In short: as §2

MATIN [9] = assay: Post-emergence herbicidal action against MATIN; format: in vivo, Matricaria inodora; details: visual rating about 3 weeks after treatment
In short: as §2

CYPES = assay: Pre-emergence herbicidal action against CYPES; format: in vivo, Cyperus esculentus; details: scored visually after about 3 weeks vs untreated controls, 100% = plants have died, 0% = like control plants
In short: as §1

AVEFA = assay: Pre-emergence herbicidal action against AVEFA; format: in vivo, Avena fatua; details: scored visually after about 3 weeks vs untreated controls, 100% = plants have died, 0% = like control plants
Text: (§4) Seeds of mono- and dicotyledonous weed plants are placed in plastic pots in sandy loam soil (doubly sown with one species each of mono- or dicotyledonous weed plants per pot) and covered with soil. The compounds of the invention, formulated in the form of wettable powders (WP) or as emulsion concentrates (EC), are then applied onto the surface of the covering soil as aqueous suspension or emulsion with addition of 0.5% additive at a water application rate equivalent to 600 litres per hectare. After the treatment, the pots are placed in a greenhouse and kept under good growth conditions for the trial plants. After about 3 weeks, the effect of the preparations is scored visually in comparison with untreated controls as percentages. For example, 100% activity=the plants have died, 0% activity=like control plants. [table] Tables 4.1-4.15 below show the effects of selected compounds of the general formula (I) according to Tables 1 to 3 on various harmful plants at an application rate corresponding to 1280 or 320 g/ha, which have been obtained by the aforementioned experimental method.

HORMU [10] = assay: Post-emergence herbicidal action against HORMU; format: in vivo, Hordeum murinum; details: 320 g/ha, visual rating about 3 weeks after treatment
Method: as §3

ALOMY [11] = assay: Pre-emergence herbicidal action against ALOMY; format: in vivo, Alopecurus myosuroides; details: scored visually after about 3 weeks vs untreated controls, 100% = plants have died, 0% = like control plants
Text: as §4

harmful plants = assay: Pre-emergence herbicidal action, summary of Tables 4.1-4.15; format: in vivo; details: result in words
In short: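 Percent herbicidal action (100% = plants dead, 0% = like controls) was assessed visually about 3 weeks after treatment. Application rates of 1280 or 320 g/ha were applied to the covering soil of freshly sown sandy-loam pots, in 600 l/ha water with 0.5% additive, before emergence.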

ALOMY [12] = assay: Post-emergence herbicidal action against ALOMY; format: in vivo, Alopecurus myosuroides; details: 1280 g/ha, post-emergence at one-leaf stage, rated visually after about 3 weeks vs untreated controls
In short: as §2

VIOTR [13] = assay: Post-emergence herbicidal action against VIOTR; format: in vivo, Viola tricolor; details: 320 g/ha, visual rating about 3 weeks after treatment
In short: as §2

MATIN [14] = assay: Pre-emergence herbicidal action against MATIN; format: in vivo, Matricaria inodora; details: 1280 g/ha, scored visually after about 3 weeks vs untreated controls
In short: as §1

VIOTR [15] = assay: Pre-emergence herbicidal action against VIOTR; format: in vivo, Viola tricolor; details: 1280 g/ha, scored visually after about 3 weeks vs untreated controls
In short: as §1

PHBPU = assay: Post-emergence herbicidal action against PHBPU; format: in vivo, Pharbitis purpurea; details: 320 g/ha, visual rating about 3 weeks after treatment
In short: as §2

VERPE [16] = assay: Post-emergence herbicidal action against VERPE; format: in vivo, Veronica persica; details: 320 g/ha, visual rating about 3 weeks after treatment
In short: as §2

POLCO [17] = assay: Post-emergence herbicidal action against POLCO; format: in vivo, Polygonum convolvulus; details: 320 g/ha, visual rating about 3 weeks after treatment
In short: as §2

HORMU [18] = assay: Pre-emergence herbicidal action against HORMU; format: in vivo, Hordeum murinum; details: 320 g/ha, scored visually after about 3 weeks vs untreated controls
Text: as §4

POLCO [19] = assay: Pre-emergence herbicidal action against POLCO; format: in vivo, Polygonum convolvulus; details: 320 g/ha, scored visually after about 3 weeks vs untreated controls
In short: as §1

VERPE [20] = assay: Pre-emergence herbicidal action against VERPE; format: in vivo, Veronica persica; details: 320 g/ha, scored visually after about 3 weeks vs untreated controls
In short: as §1

Structure (SMILES) | Pre-emergence action against STEME in % (STEME [1]; 1280 g/ha) | Post-emergence action against ECHCG in % (ECHCG [2]) | Post-emergence action against LOLRI in % (LOLRI) | Pre-emergence action against SETVI in % (SETVI [3]) | Pre-emergence action at 1280 g/ha against ECHCG in % (ECHCG [4]) | Post-emergence action against SETVI in % (SETVI [5]) | Pre-emergence action against AMARE in % (AMARE [6]) | Post-emergence action against STEME in % (STEME [7]; 1280 g/ha) | Post-emergence action against AMARE in % (AMARE [8]; 1280 g/ha) | Post-emergence action against MATIN in % (MATIN [9]; 1280 g/ha) | Post-emergence action against HORMU in % (HORMU [10]) | herbicidal efficacy against harmful plants in the case of pre-emergence treatment (harmful plants) | Post-emergence action against VIOTR in % (VIOTR [13]) | Pre-emergence action at 320 g/ha against AMARE in % (AMARE [6]) | further results
COC(=O)C(C)Oc1nn(-c2ccccc2F)c(-c2ccc(F)c(F)c2)c1C#N (stereo not drawn) [I-171] | 100% | 100% | 100% | 100% | 90% | 100% | 100% | 100% | 90% | 90% | – | – | – | – | –
COC(=O)C(C)Oc1nn(-c2cccc(F)c2)c(-c2cccc(F)c2)c1C#N (stereo not drawn) [I-067] | 90% | 90% | 90% | 100% | 80% | – | 100% | 90% | – | 80% | 80% | good herbicidal efficacy | 80% | 90% | Pre-emergence action at 1280 g/ha against CYPES in % (CYPES): 90%; Pre-emergence action at 1280 g/ha against AVEFA in % (AVEFA): 80%; Pre-emergence action at 1280 g/ha against ALOMY in % (ALOMY [11]): 90%; Post-emergence action against ALOMY in % (ALOMY [12]): 100%; Post-emergence action against STEME in % (STEME [7]; 320 g/ha): 80%; Pre-emergence action against MATIN in % (MATIN [14]): 90%; Pre-emergence action against VIOTR in % (VIOTR [15]): 100%
COC(=O)[C@@H](C)Oc1nn(-c2cccc(F)c2)c(-c2cccc(F)c2)c1C#N [I-125] | 100% | 90% | – | 100% | 100% | 90% | 100% | 90% | 90% | 90% | 90% | good herbicidal efficacy | 90% | 100% | Pre-emergence action against STEME in % (STEME [1]; 320 g/ha): 90%; Post-emergence action against PHBPU in % (PHBPU): 80%; Post-emergence action against VERPE in % (VERPE [16]): 80%; Post-emergence action against POLCO in % (POLCO [17]): 80%; Post-emergence action against AMARE in % (AMARE [8]; 320 g/ha): 90%; Pre-emergence action against HORMU in % (HORMU [18]): 90%; Pre-emergence action against POLCO in % (POLCO [19]): 100%; Post-emergence action against MATIN in % (MATIN [9]; 320 g/ha): 80%; Pre-emergence action against VERPE in % (VERPE [20]): 90%

— patent publication US20230066946A1, “1,5-DIPHENYLPYRAZOLYL-3-OXYALKYL ACIDS AND 1-PHENYL-5-THIENYLPYRAZOLYL-3-OXYALKYL ACIDS AND THE USE THEREOF FOR CONTROL OF UNWANTED PLANT GROWTH” (Bayer Aktiengesellschaft, priority 2019, published 2023)
